We go through two compounds from paper PMC5862592, “CDK8/19 inhibition induces premature G1/S transition and ATR-dependent cell death in prostate cancer cells” (Oncotarget, 2018).

Holding throughout (assay): biochemical
Set-up in all cases: KINOMEscan active site-directed competition binding assay (DiscoveRx), 456 kinases, per cent of control at 300 nM
Holding throughout (details): read-out: Percent of Control (%)

Experiment [1] addresses T1, ABL1(Q252H)-nonphosphorylated (Homo sapiens, UniProt P00519, Q252H).
T1 construct: nonphosphorylated
Put shortly: (§1)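 At 300 nmol/L, compounds were assessed for kinase binding in an active site-directed competition format covering 456 kinases.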

The target in a further experiment is AURKC (Homo sapiens, UniProt Q9UQB9). An outline of the steps: as §1
For another experiment, the target named is BLK (Homo sapiens, UniProt P51451). Put shortly: as §1
A further experiment addresses CDKL1 (Homo sapiens, UniProt Q00532). Put shortly: as §1
A further experiment concerns the target DAPK1 (Homo sapiens, UniProt P53355). An outline of the steps:
as §1

In a further experiment the target is T2, DCAMKL1 (Homo sapiens, UniProt O15075).
T2 construct: gene DCLK1
Put shortly: as §1

In experiment [2] the target is EGFR(L747-E749del, A750P) (Homo sapiens, UniProt P00533, A750P/DEL747-749). An outline of the steps: as §1
For another experiment, the target named is EPHA4 (Homo sapiens, UniProt P54764). Put shortly:
as §1

In another experiment the target is FLT3 (Homo sapiens, UniProt P36888). An outline of the steps:
as §1

Another experiment deals with HIPK4 (Homo sapiens, UniProt Q8NE63). Put shortly: as §1
In the next experiment the target is KIT (Homo sapiens, UniProt P10721). Put shortly: as §1
Another experiment deals with KIT-autoinhibited (Homo sapiens, UniProt P10721). Put shortly:
as §1

A further experiment has as its target LIMK1 (Homo sapiens, UniProt P53667). An outline of the steps: as §1
For a further experiment, the target named is MAK (Homo sapiens, UniProt P20794). An outline of the steps:
as §1

In the next experiment the target is T3, NDR1 (Homo sapiens, UniProt Q15208).
T3 construct: gene STK38
Put shortly:
as §1

For a further experiment, the target named is NEK3 (Homo sapiens, UniProt P51956). An outline of the steps: as §1
The next experiment addresses PRKCD (Homo sapiens, UniProt Q05655). An outline of the steps:
as §1

For the next experiment, the target named is PRKCE (Homo sapiens, UniProt Q02156). Put shortly: as §1
A further experiment has as its target RIPK4 (Homo sapiens, UniProt P57078). Put shortly: as §1
The target of a further experiment is T4, RIPK5 (Homo sapiens, UniProt Q6XUX3).
T4 construct: gene DSTYK
An outline of the steps:
as §1

The target of the next experiment is SRPK2 (Homo sapiens, UniProt P78362). An outline of the steps:
as §1

The next experiment concerns the target ULK2 (Homo sapiens, UniProt Q8IYT8). An outline of the steps:
as §1

Where two headings read alike, the source gives them in different places.

Chain of CDKL1 (Q00532 whole entry): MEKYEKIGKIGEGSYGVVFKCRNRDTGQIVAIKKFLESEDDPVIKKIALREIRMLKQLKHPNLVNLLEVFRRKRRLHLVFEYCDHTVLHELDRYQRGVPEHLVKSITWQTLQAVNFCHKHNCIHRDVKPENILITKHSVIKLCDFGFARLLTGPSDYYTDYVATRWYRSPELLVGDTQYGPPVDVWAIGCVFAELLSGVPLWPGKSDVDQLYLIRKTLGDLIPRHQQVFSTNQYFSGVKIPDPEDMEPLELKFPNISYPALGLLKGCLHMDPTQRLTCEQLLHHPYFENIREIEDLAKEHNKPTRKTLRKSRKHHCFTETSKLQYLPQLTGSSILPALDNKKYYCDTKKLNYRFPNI
T2 sequence (O15075 whole entry): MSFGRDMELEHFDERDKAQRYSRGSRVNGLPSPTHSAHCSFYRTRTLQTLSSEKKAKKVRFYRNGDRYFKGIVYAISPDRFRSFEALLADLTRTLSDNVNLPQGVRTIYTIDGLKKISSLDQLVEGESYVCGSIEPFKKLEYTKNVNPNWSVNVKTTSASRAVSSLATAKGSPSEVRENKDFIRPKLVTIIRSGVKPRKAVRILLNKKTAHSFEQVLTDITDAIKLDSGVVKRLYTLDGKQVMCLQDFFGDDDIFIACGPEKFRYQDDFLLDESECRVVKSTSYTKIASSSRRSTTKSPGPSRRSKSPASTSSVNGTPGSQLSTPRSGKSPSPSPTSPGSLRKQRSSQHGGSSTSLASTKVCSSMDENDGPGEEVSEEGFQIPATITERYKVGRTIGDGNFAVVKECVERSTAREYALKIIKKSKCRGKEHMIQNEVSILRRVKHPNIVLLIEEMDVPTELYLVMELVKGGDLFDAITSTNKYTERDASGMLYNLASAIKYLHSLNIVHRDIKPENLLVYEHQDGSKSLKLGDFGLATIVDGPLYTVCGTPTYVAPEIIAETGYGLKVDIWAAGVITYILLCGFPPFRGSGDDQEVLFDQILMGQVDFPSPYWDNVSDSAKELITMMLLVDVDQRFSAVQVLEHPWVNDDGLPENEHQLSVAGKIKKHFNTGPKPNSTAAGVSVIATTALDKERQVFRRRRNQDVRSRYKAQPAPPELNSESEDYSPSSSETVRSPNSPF
Chain of PRKCD (Q05655 whole entry): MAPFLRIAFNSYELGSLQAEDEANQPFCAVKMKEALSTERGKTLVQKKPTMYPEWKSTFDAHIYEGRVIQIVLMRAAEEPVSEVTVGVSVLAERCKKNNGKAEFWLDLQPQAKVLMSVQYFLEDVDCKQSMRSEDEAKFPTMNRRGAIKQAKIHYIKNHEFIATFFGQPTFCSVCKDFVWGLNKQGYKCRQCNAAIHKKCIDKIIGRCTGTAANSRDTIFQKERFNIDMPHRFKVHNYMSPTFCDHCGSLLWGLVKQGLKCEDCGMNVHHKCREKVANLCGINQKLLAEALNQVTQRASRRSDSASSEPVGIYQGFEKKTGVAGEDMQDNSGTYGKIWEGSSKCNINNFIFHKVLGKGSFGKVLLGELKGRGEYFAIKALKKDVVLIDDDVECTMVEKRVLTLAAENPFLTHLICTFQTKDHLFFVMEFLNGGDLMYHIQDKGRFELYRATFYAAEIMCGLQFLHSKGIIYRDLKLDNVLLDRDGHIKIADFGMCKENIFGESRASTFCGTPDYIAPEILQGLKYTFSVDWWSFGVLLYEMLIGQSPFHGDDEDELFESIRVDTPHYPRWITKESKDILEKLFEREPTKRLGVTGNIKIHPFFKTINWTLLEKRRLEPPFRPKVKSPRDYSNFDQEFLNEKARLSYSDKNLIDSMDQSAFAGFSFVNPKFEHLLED
Chain of NEK3 (P51956 whole entry): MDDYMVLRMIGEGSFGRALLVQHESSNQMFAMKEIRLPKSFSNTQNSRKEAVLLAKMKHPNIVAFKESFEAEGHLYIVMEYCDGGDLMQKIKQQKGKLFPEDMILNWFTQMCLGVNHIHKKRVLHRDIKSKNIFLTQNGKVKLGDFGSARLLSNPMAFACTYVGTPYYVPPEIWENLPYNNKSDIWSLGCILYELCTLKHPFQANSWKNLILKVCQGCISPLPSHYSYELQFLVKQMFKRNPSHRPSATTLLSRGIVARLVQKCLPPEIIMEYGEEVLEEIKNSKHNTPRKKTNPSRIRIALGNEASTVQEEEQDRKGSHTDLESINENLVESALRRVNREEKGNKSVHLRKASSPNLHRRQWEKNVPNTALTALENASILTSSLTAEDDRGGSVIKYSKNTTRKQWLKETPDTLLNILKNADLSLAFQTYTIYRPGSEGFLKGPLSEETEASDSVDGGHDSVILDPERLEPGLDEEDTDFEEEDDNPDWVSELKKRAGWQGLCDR
Chain of PRKCE (Q02156 whole entry): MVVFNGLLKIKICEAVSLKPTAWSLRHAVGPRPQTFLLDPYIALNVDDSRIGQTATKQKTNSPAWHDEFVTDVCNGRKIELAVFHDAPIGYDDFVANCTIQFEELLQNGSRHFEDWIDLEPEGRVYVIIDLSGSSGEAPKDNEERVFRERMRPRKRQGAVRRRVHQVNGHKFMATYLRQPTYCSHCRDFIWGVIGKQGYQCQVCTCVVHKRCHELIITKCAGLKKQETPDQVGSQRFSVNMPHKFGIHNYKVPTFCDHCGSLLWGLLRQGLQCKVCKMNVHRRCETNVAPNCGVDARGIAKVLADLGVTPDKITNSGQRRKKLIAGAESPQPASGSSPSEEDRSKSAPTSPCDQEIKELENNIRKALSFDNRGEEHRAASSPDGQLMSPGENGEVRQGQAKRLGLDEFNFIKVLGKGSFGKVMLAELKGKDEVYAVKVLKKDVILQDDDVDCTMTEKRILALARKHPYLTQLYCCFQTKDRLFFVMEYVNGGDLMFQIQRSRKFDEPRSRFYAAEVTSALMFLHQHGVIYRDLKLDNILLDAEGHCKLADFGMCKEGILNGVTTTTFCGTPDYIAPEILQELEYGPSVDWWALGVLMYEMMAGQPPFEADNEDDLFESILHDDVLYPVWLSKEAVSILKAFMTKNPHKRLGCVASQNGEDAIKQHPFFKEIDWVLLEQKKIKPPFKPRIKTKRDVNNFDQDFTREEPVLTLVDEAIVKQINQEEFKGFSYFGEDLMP
Chain of EGFR(L747-E749del, A750P) (P00533 with tags, fused parts or gaps DEL747-749/A750P): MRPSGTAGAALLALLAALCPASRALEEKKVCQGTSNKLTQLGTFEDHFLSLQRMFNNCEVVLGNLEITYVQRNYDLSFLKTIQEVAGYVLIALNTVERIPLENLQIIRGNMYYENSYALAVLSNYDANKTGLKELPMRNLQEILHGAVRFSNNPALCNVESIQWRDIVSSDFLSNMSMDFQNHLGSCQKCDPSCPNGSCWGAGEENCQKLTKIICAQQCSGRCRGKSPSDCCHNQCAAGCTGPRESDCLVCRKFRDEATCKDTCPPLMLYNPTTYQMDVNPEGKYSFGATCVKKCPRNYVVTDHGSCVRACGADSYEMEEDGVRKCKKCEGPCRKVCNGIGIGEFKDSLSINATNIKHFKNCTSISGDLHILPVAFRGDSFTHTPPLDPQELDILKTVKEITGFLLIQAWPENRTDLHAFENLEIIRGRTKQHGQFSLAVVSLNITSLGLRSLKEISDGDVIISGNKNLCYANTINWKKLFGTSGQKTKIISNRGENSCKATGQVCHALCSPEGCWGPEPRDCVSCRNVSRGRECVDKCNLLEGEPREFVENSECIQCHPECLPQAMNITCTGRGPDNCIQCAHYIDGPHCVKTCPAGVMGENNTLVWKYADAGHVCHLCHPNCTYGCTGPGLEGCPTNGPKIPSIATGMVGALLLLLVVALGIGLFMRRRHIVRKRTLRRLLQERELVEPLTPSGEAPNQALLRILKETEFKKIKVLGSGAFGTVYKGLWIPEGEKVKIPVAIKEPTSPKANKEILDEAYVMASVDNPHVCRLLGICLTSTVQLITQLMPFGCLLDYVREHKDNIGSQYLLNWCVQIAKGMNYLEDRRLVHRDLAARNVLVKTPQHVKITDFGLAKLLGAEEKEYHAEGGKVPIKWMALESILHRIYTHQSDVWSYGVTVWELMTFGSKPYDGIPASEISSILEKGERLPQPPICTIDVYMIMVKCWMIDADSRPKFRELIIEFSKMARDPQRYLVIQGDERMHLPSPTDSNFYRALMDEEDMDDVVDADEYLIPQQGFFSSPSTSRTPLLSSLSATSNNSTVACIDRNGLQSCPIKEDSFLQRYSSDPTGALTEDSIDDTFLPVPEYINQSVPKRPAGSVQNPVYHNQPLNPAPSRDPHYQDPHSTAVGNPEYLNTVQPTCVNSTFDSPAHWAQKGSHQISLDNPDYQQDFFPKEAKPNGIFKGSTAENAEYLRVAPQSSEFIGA
Chain of SRPK2 (P78362 whole entry): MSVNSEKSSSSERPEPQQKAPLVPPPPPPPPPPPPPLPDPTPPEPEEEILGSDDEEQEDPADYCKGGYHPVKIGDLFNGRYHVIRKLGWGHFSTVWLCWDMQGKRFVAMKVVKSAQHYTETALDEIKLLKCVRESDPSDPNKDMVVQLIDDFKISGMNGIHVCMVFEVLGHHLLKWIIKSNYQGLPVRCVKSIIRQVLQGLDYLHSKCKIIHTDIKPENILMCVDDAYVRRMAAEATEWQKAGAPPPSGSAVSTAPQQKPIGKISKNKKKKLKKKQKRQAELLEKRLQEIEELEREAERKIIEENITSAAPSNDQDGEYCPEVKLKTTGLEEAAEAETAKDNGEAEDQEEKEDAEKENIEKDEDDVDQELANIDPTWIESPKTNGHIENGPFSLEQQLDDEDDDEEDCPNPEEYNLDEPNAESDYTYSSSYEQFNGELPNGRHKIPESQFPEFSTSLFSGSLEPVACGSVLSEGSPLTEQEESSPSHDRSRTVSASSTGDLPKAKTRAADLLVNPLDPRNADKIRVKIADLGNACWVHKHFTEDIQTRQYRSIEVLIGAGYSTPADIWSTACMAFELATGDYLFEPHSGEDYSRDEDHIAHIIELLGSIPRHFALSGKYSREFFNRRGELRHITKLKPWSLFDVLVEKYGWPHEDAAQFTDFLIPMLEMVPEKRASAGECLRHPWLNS

For `Cc1ncccc1Oc1sc(C(N)=O)c2c1-c1c(cnn1C)CC2` [T-474, 1-methyl-8-((2-methylpyridin-3-yl)oxy)-4,5-dihydro-1H-thieno[3,4-g]indazole-6-carboxamide], the remaining binding at 0.3 µM in experiment [1] is 100%; on AURKC it was 100%; on BLK, 100%; on CDKL1, 76%; at DAPK1, 100%; at DCAMKL1, 69%. The remaining binding at 0.3 µM in experiment [2] came out at 68%; at EPHA4 it was 100%; at FLT3, 100%; at HIPK4, 68%; on KIT, 100%; at KIT-autoinhibited, 100%. In addition, the remaining binding at 0.3 µM on LIMK1 was found to be 100%; at MAK it was 98%; on NDR1, 39%; at NEK3, 100%; at PRKCD it was 96%; on PRKCE it was 35%. Moreover, the remaining binding at 0.3 µM at RIPK4, on RIPK5, on SRPK2 and on ULK2 was 100% in each case.

For the compound `O=C(/C=C/c1cnccc1-c1ccc(F)cc1)Nc1ccc(CCc2nnco2)cc1` [T-418, (2E)-3-(4-(4-fluorophenyl)pyridin-3-yl)-N-(4-(2-(1,3,4-oxadiazol-2-yl)ethyl)phenyl)acrylamide], the remaining binding at 0.3 µM in [1] (sheet T-418) was 83%; on AURKC (sheet T-418) it was 100%; on BLK (sheet T-418), 100%; at CDKL1 (sheet T-418), 88%; on DAPK1 (sheet T-418), 100%; on DCAMKL1 (sheet T-418), 52%. In addition, the remaining binding at 0.3 µM in experiment [2] (sheet T-418) came to 58%; at EPHA4 (sheet T-418), 100%; on FLT3 (sheet T-418) it was 66%; at HIPK4 (sheet T-418) it was 84%; on KIT (sheet T-418), 100%; at KIT-autoinhibited (sheet T-418), 100%. Further, the remaining binding at 0.3 µM on LIMK1 (sheet T-418) was 100%; at MAK (sheet T-418), 100%; at NDR1 (sheet T-418), 46%; at NEK3 (sheet T-418), 100%; at PRKCD (sheet T-418) it was 100%; at PRKCE (sheet T-418) it was 39%. For the same compound, the remaining binding at 0.3 µM at RIPK4 (sheet T-418) worked out at 100%; on RIPK5 (sheet T-418), 86%; at SRPK2 (sheet T-418), 50%; at ULK2 (sheet T-418), 100%.
